Patent US11578300B2, “Test apparatus” (Hitachi High-Tech Corporation, priority 2014, dated 2023)
Values after ≈ are worked out from the molar mass of the structure shown. One block for each compound: values may come before it.

Legend:
Format in all cases: cell-based
E coli (ATCC35218) = experiment: susceptibility test of E coli treated with cefazolin by microscopic observation (bacteriological test apparatus); conditions: for growth of the E coli in images / bacterial number in a microscopic image: after three hours; for bacterial number in a microscopic image: FIG. 22A; for average value of the areas per one bacterium: FIG. 22C
Procedure: After the bacterial suspension is introduced into the culture plate 18, the bacterial suspension is in a state of being mixed with the culture liquid which is included in each of the wells, and the temperature controller 16 is set to a temperature of approximately 35° C. Culture is performed by performing incubation such that the temperature of each of the wells in the culture plate 18 is in the vicinity of the set temperature. Then, while performing the incubation, the bacteria included in each of the wells are monitored through the microscopic observation optical system. The microscopic observation (monitoring) may be performed for a set period of time from the start of the incubation till the end thereof by continuously monitoring the state of bacterial growth. Otherwise, a suitable time may be set and monitoring is performed every set time thereof so as to be able to be compared with the monitored result at the time of starting the incubation. In addition, similar to the bacteriological test apparatus in the related art, the turbidity of each of the wells may be measured through the turbidity measurement optical system while incubating the culture plate 18. The measured result may be compared with the monitored result of the microscopic observation optical system. FIGS. 20A-20D and 21A-21D are diagrams illustrating results of a susceptibility test of E coli (ATCC35218) treated with cefazolin performed by using the bacteriological test apparatus of the present invention. FIGS. 20A to 20D are microscopic images which are obtained by culturing the E. coli in Mueller-Hinton culture mediums respectively containing cefazolin having concentrations of 0 μg/mL, 0.5 μg/mL, 1 μg/mL, and 2 μg/mL, and captured after three hours from the start of culture. The target objects vaguely appearing in the images are the bacteria. FIGS. 21A to 21D are images obtained by respectively performing image processing onto the images of FIGS. […], performing edge detection, and performing binarization thereafter. The target objects appearing black in FIGS. 21A-21D are the E. coli. […] FIGS. 22A-22F are graphs obtained by extracting the feature values of the bacteria from the image of FIGS. 20A-20D. FIG. 22A is a graph illustrating the bacterial number in a microscopic image. […] FIG. 22B is a graph illustrating the areas of the bacteria in the microscopic image. FIG. 22C is a graph illustrating the average values of the areas per one bacterium obtained based on FIGS. 22A and 22B. […] As it also could be confirmed in FIGS. 21A-21D, the facts thereof indicate that the bacteria are elongated due to effect of cefazolin. FIGS. 22D to 22F are graphs respectively showing the perimeter length, the circularity, and the solidity (an index showing how the shape is close to a circle) per one bacterium. As the results of the elongated bacteria, it could be confirmed that the perimeter length increased in FIG. 22D, the circularity defined through […] was lowered in FIG. 22E, and the solidity defined through the area/the projection area is lowered in FIG. 22F.

E. coli (ATCC25922) = experiment: susceptibility test with respect to ampicillin by microscopic observation (bacteriological test apparatus)
Procedure: After the bacterial suspension is introduced into the culture plate 18, the bacterial suspension is in a state of being mixed with the culture liquid which is included in each of the wells, and the temperature controller 16 is set to a temperature of approximately 35° C. Culture is performed by performing incubation such that the temperature of each of the wells in the culture plate 18 is in the vicinity of the set temperature. Then, while performing the incubation, the bacteria included in each of the wells are monitored through the microscopic observation optical system. The microscopic observation (monitoring) may be performed for a set period of time from the start of the incubation till the end thereof by continuously monitoring the state of bacterial growth. Otherwise, a suitable time may be set and monitoring is performed every set time thereof so as to be able to be compared with the monitored result at the time of starting the incubation. In addition, similar to the bacteriological test apparatus in the related art, the turbidity of each of the wells may be measured through the turbidity measurement optical system while incubating the culture plate 18. The measured result may be compared with the monitored result of the microscopic observation optical system. FIGS. 16A to 18C are diagrams illustrating results of a susceptibility test with respect to ampicillin of E. coli (ATCC25922) performed by using the bacteriological test apparatus of the present invention. FIGS. 16A to 18C are images obtained by culturing the E. coli in Mueller-Hinton culture mediums respectively containing ampicillin having the concentrations of 0 μg/mL, 2 μg/mL, and 16 μg/mL, performing image processing of a line extracting filter and the like onto microscopic images respectively captured after (a) 0 hours, (b) 3 hours, and (c) 24 hours from the start of culture, and performing binarization. The target objects appearing black in FIGS. 16A to 18C are the E. coli. […] FIG. 19 is a graph obtained by calculating the areas of the E. coli in the images of FIGS. 16A to 18C and plotting the areas thereof periodically. […] In this manner, it was possible to obtain the MIC with respect to the ampicillin of the used E. coli based on the graph achieved by monitoring the change in the areas of the bacteria in the images. It could be confirmed that the antimicrobial susceptibility test which requires overnight culture in the related art could be carried out in a short time by using the bacteriological test apparatus of the present invention.

[1] = tested on: Enterococcus faecalis (ATCC29212); experiment: susceptibility test with respect to levofloxacin by microscopic observation (bacteriological test apparatus); conditions: Mueller-Hinton culture medium, from areas of bacteria in images over time, read-out: minimum inhibitory concentration (MIC)
Procedure: After the bacterial suspension is introduced into the culture plate 18, the bacterial suspension is in a state of being mixed with the culture liquid which is included in each of the wells, and the temperature controller 16 is set to a temperature of approximately 35° C. Culture is performed by performing incubation such that the temperature of each of the wells in the culture plate 18 is in the vicinity of the set temperature. Then, while performing the incubation, the bacteria included in each of the wells are monitored through the microscopic observation optical system. The microscopic observation (monitoring) may be performed for a set period of time from the start of the incubation till the end thereof by continuously monitoring the state of bacterial growth. Otherwise, a suitable time may be set and monitoring is performed every set time thereof so as to be able to be compared with the monitored result at the time of starting the incubation. In addition, similar to the bacteriological test apparatus in the related art, the turbidity of each of the wells may be measured through the turbidity measurement optical system while incubating the culture plate 18. The measured result may be compared with the monitored result of the microscopic observation optical system. FIGS. 10A to 13D are diagrams illustrating the results obtained by applying the present invention. […]

Compound: Cc1nnc(SCC2=C(C(=O)O)N3C(=O)[C@@H](NC(=O)Cn4cnnn4)[C@H]3SC2)s1 [cefazolin]
- growth of the E coli in images (E coli (ATCC35218); cefazolin 0.5 μg/mL, FIG. 21B): grew after three hours
- bacterial number in a microscopic image (E coli (ATCC35218); cefazolin 0.5 μg/mL): increased through growth
- average value of the areas per one bacterium (E coli (ATCC35218); cefazolin 0.5 μg/mL, compared to no antibacterial agent): the area increased
- average value of the areas per one bacterium (E coli (ATCC35218); cefazolin 1 μg/mL): further increased
- growth of the E coli in images (E coli (ATCC35218); cefazolin 1 μg/mL, FIG. 21C): did not quite grow after three hours and was elongated
- bacterial number in a microscopic image (E coli (ATCC35218); cefazolin 1 μg/mL): did not quite grow
- average value of the areas per one bacterium (E coli (ATCC35218); cefazolin 2 μg/mL): further increased
- growth of the E coli in images (E coli (ATCC35218); cefazolin 2 μg/mL, FIG. 21D): did not quite grow after three hours and was elongated
- bacterial number in a microscopic image (E coli (ATCC35218); cefazolin 2 μg/mL): did not quite grow
- perimeter length per one bacterium (E coli (ATCC35218); elongated bacteria, concentration not given, FIG. 22D): increased
- circularity per one bacterium (E coli (ATCC35218); elongated bacteria, concentration not given, FIG. 22E): lowered
- solidity per one bacterium (E coli (ATCC35218); elongated bacteria, concentration not given, FIG. 22F): lowered

Compound: CC1(C)S[C@@H]2[C@H](NC(=O)[C@H](N)c3ccccc3)C(=O)N2[C@H]1C(=O)O [ampicillin]
- areas of the E. coli in the images (E. coli (ATCC25922); ampicillin 2 μg/mL, FIG. 19 graph (ii)): increased with the lapse of time
- growth of the E. coli in images (E. coli (ATCC25922); ampicillin 2 μg/mL, after 24 hours, FIG. 17C): grew after 24 hours
- shape of the E. coli in images (E. coli (ATCC25922); ampicillin 2 μg/mL, after three hours, FIG. 17B): elongated states
- areas of the E. coli in the images (E. coli (ATCC25922); ampicillin 16 μg/mL, FIG. 19 graph (iii)): seldom increased
- growth of the E. coli in images (E. coli (ATCC25922); ampicillin 16 μg/mL, FIGS. 18A-18C): did not grow without being elongated

- MIC [1]: 1 µg/mL (≈ 2.77 µM)
Compound: C[C@H]1COc2c(N3CCN(C)CC3)c(F)cc3c(=O)c(C(=O)O)cn1c23 [levofloxacin]
